The source of these data is patent US9931380B2, “Medicament for treating olfaction disorder” (priority 2015, dated 2018).

A short description of assay [1]: Blood sugar level of DM (STZ) mice given the insulin preparation. Particulars: intraperitoneally once a day, 2 to 3 U/kg of insulin detemir. Type of assay: in vivo, C57BL/6 mice. How it is done:
(§1) To C57BL/6 mice (normal mice; Japan SLC, Inc) at the age of 10 weeks, 120 mg/kg of streptozotocin (STZ; Sigma-Aldrich) was administered intraperitoneally for three days in a row, on Days 0 (Initial administration), 1, and 2. On Day 7, those with a fasting blood glucose (fasting blood sugar level: FBS) of 250 mg/dl or more were defined as DM mice in which pancreatic β cells were specifically impaired. Moreover, subsequent operations used those with a blood sugar of more than 250 mg/dl at any time after about one week since the administration of STZ.
As the insulin preparation, “Levemir FlexPen (Registered Trademark)” was used (referred to as Levemir). Levemir was administered intraperitoneally into DM mice once a day, with 2 to 3 U/kg of the insulin detemir each. […] The amount of insulin given here was therefore regarded as the amount that can properly resolve the shortages of insulin in the DM mice. The olfactory epithelium tissues of groups of DM mice (group a, group b, and group c) were observed 14 days after the administration of methimazole (Refer to FIGS. 9A and 9B): Each group differs on the time when insulin was additionally given. […] Then, with the use of the above-described method, the number of olfactory nerve cells (OSNs) of olfactory epithelium, the thickness of olfactory epithelium, and the number of OMP positive cells were counted in each group. […]

A further assay concerns olfactory epithelium. Briefly: Regeneration of olfactory epithelium in DM model mice with methimazole-induced olfactory disturbance after insulin administration. Particulars: for number of olfactory nerve cells, DM mice vs normal mice / thickness of olfactory epithelium, DM mice vs normal mice / number of mature olfactory nerve cells (number of OMP positive cells), DM mice vs normal mice: read 14 days after methimazole. In kind it is in vivo, C57BL/6 mice. On the procedure:
as §1
To each of positive control mice, which were created by giving only physiological saline to normal mice, and DM mice, 80 mg/kg of methimazole (Siyma-Aldrich) was administered intraperitoneally in order to create model mice with olfactory disturbance. The model mice with olfactory disturbance were created as metabolites of methimazole selectively damaged olfactory epithelium. The mechanism of olfactory disturbance is considered to be the activation of caspase that induces apoptosis in olfactory cells. When normal mice were given methimazole, the damaged olfactory epithelium could recover to the almost normal level about 28 days after the administration. Moreover, normal mice that were given physiological saline instead of methimazole were used as control. Their weight and blood sugar levels of tail veins were measured 28 days after the methimazole injection.
The hearts of mice were perfused with 4% paraformaldehyde in 0.1M phosphate buffer. The mice were sacrificed and fixed 24 hours later with the same fixative. Nostril tissues containing OE were decalcified with a 10% EDTA solution (pH 7.0), and were embedded in paraffin. Coronal sections (with thickness of 4 μm) were cut off and put on silane-coated slides. The deparaffinized sections were autoclaved for 10 minutes in Target Retrieval Solution (S1700; Dako) for antigen retrieval. Immunohistochemistry was conducted with one of the following antibodies: Anti-insulin receptors, anti-phosphorylated insulin receptors, anti-olfactory marker proteins (OMP, goat polyclonal, 1:4000 dilution; Wako Chemicals), anti-activated caspase-3 (rabbit polyclonal, 1:5000; Cell Signaling Technology), anti-Ki-67 (mouse monoclonal, 1:500; BD Biosciences), and anti-c-fos antibodies (Rabbit IgG, 1:1000; Santa Cruz Biotechnology).
In order to suppress the variation of data values that could be caused by anatomical changes (e.g. aerated nasal turbinate) between mice and in the mice, the OE analysis was conducted in such a way as to be limited to OE (olfactory epithelium) of the nasal septum and nasal turbinate's top on the right and left sides in the nasal cavity.
Sections were cut at intervals of 500 μm. The olfactory epithelium included the following two cell lines: Olfactory nerve cells (OSNs) and basal stem cells. Rectangular cells on lamina propria in OE were defined as basal cells. The rest of the cells were defined as OSNs. The thickness, or distance from the lamina propria to the surface, was measured with software known as ImageJ. The number of OSNs labeled with anti-OMP, anti-activated caspase-3, and anti-Ki-67 antibody was quantitatively analyzed by uniquely immunostaining for each antigen and using sections counterstained with hematoxylin. As for connective tissues under the lamina propria, the immunostaining of cells with an intermediate background intensity more than double the standard deviation was regarded as being positive. The number of OSNs and the number of immunostained cells (OMP-positive cells, Ki-67-positive cells, and caspase-3 positive cells) were measured along the total length of the nasal septum in microscopic observation images (of each of normal groups and STZ groups) for both the left and right sides. […]

Where [2] appears, read: group a: 3 U/kg i.p. day 1 to 14.
Where [3] appears, read: group b as printed: 3 U/kg i.p. day 1 to 7.
Where [4] appears, read: group b: 3 U/kg i.p. only day 1 to 7, 14 days after onset of disturbance.
Setting [5] is: groups a (day 1 to 14) and c (day 7 to 14), 3 U/kg i.p., 14 days after onset of disturbance.

For the substance insulin detemir [Levemir], the blood sugar levels entry in assay [1] is listed as “around 130 mg/dl”. In addition, in the assay with olfactory epithelium (setting [2]), the “number of olfactory nerve cells, DM mice vs normal mice” value is listed as “no significant difference” and the “thickness of olfactory epithelium, DM mice vs normal mice” value is “no significant difference”. The “number of mature olfactory nerve cells (number of OMP positive cells), DM mice vs normal mice” value in the assay with olfactory epithelium (group a: 3 U/kg i.p. every day, day 1 to 14 after methimazole) is given as “broadly comparable to normal mice”. Further, in the assay with olfactory epithelium (setting [3]), the “number of olfactory nerve cells, DM mice vs normal mice” value is recorded as “no significant difference” and the “thickness of olfactory epithelium, DM mice vs normal mice” value was “no significant difference”. Besides, the “number of mature olfactory nerve cells (number of OMP positive cells), DM mice vs normal mice” value in the assay with olfactory epithelium (group b as printed: 3 U/kg i.p. only day 1 to 7 after methimazole) is “broadly comparable to normal mice”. Besides, in the assay with olfactory epithelium (setting [4]), the “number of OMP positive cells, compared with groups a and c” value is “significant decreases”; the “number of OSNs, compared with groups a and c” value is “significant decreases”; the “thickness of olfactory epithelium, compared with groups a and c” value was “significant decreases”. For the same substance, in the assay on olfactory epithelium (setting [5]), the “number of OMP positive cells” value is recorded as “no significant differences”, the “number of OSNs” value is on record as “no significant differences” and the “thickness of olfactory epithelium” value is recorded as “no significant differences”.
